Reference: US20210009542A1 (Calico Life Sciences LLC, priority 2018, published 2021)
Like-named read-outs stand apart in the source and are kept apart here.

Tests used:
[1] = biological target: T1, His tagged PTPN2 (TC45) protein (Homo sapiens, UniProt P17706); test: Mobility shift assay (MSA) for potency of PTPN2 inhibitors; type: biochemical; conditions: read-out: PTPN2 MSA IC50
T1 construct: made in house
T1 sequence (P17706 with tags, fused parts or gaps isoform P17706-2): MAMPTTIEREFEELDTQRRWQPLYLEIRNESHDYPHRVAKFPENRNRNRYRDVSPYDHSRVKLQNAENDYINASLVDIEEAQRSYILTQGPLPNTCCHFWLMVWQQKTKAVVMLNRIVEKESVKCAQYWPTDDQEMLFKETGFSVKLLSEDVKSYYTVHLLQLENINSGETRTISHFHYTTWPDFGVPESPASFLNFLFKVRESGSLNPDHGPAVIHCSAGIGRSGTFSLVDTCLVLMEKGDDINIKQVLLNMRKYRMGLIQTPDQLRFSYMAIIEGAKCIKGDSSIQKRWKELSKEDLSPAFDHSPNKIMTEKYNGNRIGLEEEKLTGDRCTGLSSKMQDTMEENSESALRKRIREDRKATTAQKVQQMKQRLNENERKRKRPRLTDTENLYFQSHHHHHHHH
Outline: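 IC50 values were derived from % inhibition of substrate conversion, measured by microfluidic mobility shift (ex 488/em 530) after quenching. The fluorescent phosphotyrosine insulin-receptor peptide ([…]) reacted for 10 min at room temperature with 0.5 nM His-tagged TC45 PTPN2 that had been preincubated 10 min with compound (12 points, 1:3). Buffer was HEPES pH 7.5 with EGTA, EDTA, Tween 20 and DTT.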

[2] = system: B16F10 mouse melanoma cells; test: B16F10 IFNγ-induced cellular growth inhibition assay; type: cell-based; conditions: Mus musculus, B16-F10, 33 μM compound
Description: B16F10 mouse melanoma cells (ATCC Cat ^#CRL-6475, Manassas, Va.) were seeded at a density of 500 cells per well in a 384-well clear bottom plate (Corning Cat^# 3765, Corning, N.Y.) in 25 μL total volume of DMEM+10% FBS (Sigma Cat ^#D6429 and Sigma Cat ^#F4135, St. Louis, Mo.). Cells were allowed to adhere overnight at 37° C.+5% CO2. On the following day, 12.5 μL of mouse IFNγ (RD systems Cat485-MI/CF, Minneapolis, Minn.) was added to half of the plate (columns 13-24) at a concentration of 2 ng/mL for a final assay concentration of 0.5 ng/mL of IFNγ. Media only (12.5 μL of DMEM+10% FBS) was added to the remainder of the plate (columns 1-12). Next, compounds resuspended in DMSO (Sigma Cat ^#D2650) at 100 mM were diluted in semi-log dilutions in DMSO ranging from 100 mM to 0.001 mM and DMSO only controls were included. The compound/DMSO dilutions were further diluted 1:250 in DMEM+10% FBS, and 12.5 μL of these dilutions were added in triplicates to cells of both treatment arms (with and without IFNγ). Final compound concentrations ranged from 100 μM to 0.001 μM with a final DMSO concentration of 0.1%. Compounds were only dosed in the inner 240 wells, avoiding the outer 2-well perimeter of the plate to minimize edge effects. Finally, the plate was loaded into an IncuCyte® S3 Live Cell Analysis System (Essen Bioscience-Sartorius, Ann Arbor, Mich.) maintained in a 37° C.+5% CO2 incubator, allowed to equilibrate for 2 hours, and imaged every 6 hours for 5 days. Confluence over time for compound dilutions in the presence and absence of IFNγ was measured. Growth inhibition values were obtained when the “DMSO/no IFNγ” control reached confluence >95%. At these time points, the percent growth inhibition of each compound at the indicated concentration was calculated relative to the “DMSO/with IFNγ” control.

[3] = +0.5 ng/mL IFNγ, relative to DMSO control, read-out: % B16F10 growth inhibition (+0.5 ng/mL IFNγ) @ 33 μM
[4] = no IFNγ, read-out: % B16F10 growth inhibition (no IFNγ) @ 33 μM

Compound | IC50 [1] [nM] | inhibition at 33 µM [2, 3] [%] | inhibition at 33 µM [2, 4] [%]
CC(C)(CN)CCOc1ccc2cc(O)c(N3CC(=O)NS3(=O)=O)c(F)c2c1 [Compound 176, 5-[7-(4-amino-3,3-dimethylbutoxy)-1-fluoro-3-hydroxynaphthalen-2-yl]-1λ^6,2,5-thiadiazolidine-1,1,3-trione] | 1 to 10 | > 90 | < 25
O=C1CN(c2c(O)cc3ccc(NCCN4CCC4)cc3c2F)S(=O)(=O)N1 [Compound 177, 5-(7-{[2-(azetidin-1-yl)ethyl]amino}-1-fluoro-3-hydroxynaphthalen-2-yl)-1λ^6,2,5-thiadiazolidine-1,1,3-trione] | 1 to 10 | > 90 | < 25
O=C1CN(c2c(O)cc3ccc(OC4CN(S(=O)(=O)C5CC5)C4)cc3c2F)S(=O)(=O)N1 [Compound 178, 5-(7-{[1-(cyclopropanesulfonyl)azetidin-3-yl]oxy}-1-fluoro-3-hydroxynaphthalen-2-yl)-1λ^6,2,5-thiadiazolidine-1,1,3-trione] | 1 to 10 | 60 to 90 | < 25
COCCNc1ccc2cc(O)c(N3CC(=O)NS3(=O)=O)c(F)c2c1 [Compound 179, 5-{1-fluoro-3-hydroxy-7-[(2-methoxyethyl)amino]naphthalen-2-yl}-1λ^6,2,5-thiadiazolidine-1,1,3-trione] | 10 to 100 | > 90 | < 25
O=C1CN(c2c(O)cc3ccc(OCCC(F)(F)F)cc3c2F)S(=O)(=O)N1 [Compound 180, 5-[1-fluoro-3-hydroxy-7-(3,3,3-trifluoropropoxy)naphthalen-2-yl]-1λ^6,2,5-thiadiazolidine-1,1,3-trione] | 1 to 10 | 60 to 90 | < 25
N#CC1(CNc2ccc3cc(O)c(N4CC(=O)NS4(=O)=O)c(F)c3c2)CC1 [Compound 181, 1-({[8-fluoro-6-hydroxy-7-(1,1,4-trioxo-1λ^6,2,5-thiadiazolidin-2-yl)naphthalen-2-yl]amino}methyl)cyclopropane-1-carbonitrile] | 1 to 10 | 60 to 90 | < 25
Nc1ccc(CS(=O)(=O)N2CC=C(c3ccc4cc(O)c(N5CC(=O)NS5(=O)=O)c(F)c4c3)C2)cc1 [Compound 184, 5-(7-{1-[(4-aminophenyl)methanesulfonyl]-2,5-dihydro-1H-pyrrol-3-yl}-1-fluoro-3-hydroxynaphthalen-2-yl)-1λ^6,2,5-thiadiazolidine-1,1,3-trione] | < 1 | 25 to 59 | < 25
CC1(CCOc2ccc3cc(O)c(N4CC(=O)NS4(=O)=O)c(F)c3c2)CC1 [Compound 193, 5-{1-fluoro-3-hydroxy-7-[2-(1-methylcyclopropyl)ethoxy]naphthalen-2-yl}-1λ^6,2,5-thiadiazolidine-1,1,3-trione] | < 1 | 25 to 59 | < 25
Nc1ccccc1CS(=O)(=O)N1CC=C(c2ccc3cc(O)c(N4CC(=O)NS4(=O)=O)c(F)c3c2)C1 [Compound 195, 5-(7-{1-[(2-aminophenyl)methanesulfonyl]-2,5-dihydro-1H-pyrrol-3-yl}-1-fluoro-3-hydroxynaphthalen-2-yl)-1λ^6,2,5-thiadiazolidine-1,1,3-trione] | < 1 | 60 to 90 | < 25
O=C1CN(c2c(O)cc3ccc(OCCF)cc3c2F)S(=O)(=O)N1 [Compound 198, 5-[1-fluoro-7-(2-fluoroethoxy)-3-hydroxynaphthalen-2-yl]-1λ^6,2,5-thiadiazolidine-1,1,3-trione] | 1 to 10 | 60 to 90 | < 25
CC(C)CCNc1ccc2cc(O)c(N3CC(=O)NS3(=O)=O)c(F)c2c1 [Compound 200, 5-{1-fluoro-3-hydroxy-7-[(3-methylbutyl)amino]naphthalen-2-yl}-1λ^6,2,5-thiadiazolidine-1,1,3-trione] | 1 to 10 | > 90 | < 25
CC(C)CNc1ccc2cc(O)c(N3CC(=O)NS3(=O)=O)c(F)c2c1 [Compound 201, 5-{1-fluoro-3-hydroxy-7-[(2-methylpropyl)amino]naphthalen-2-yl}-1λ^6,2,5-thiadiazolidine-1,1,3-trione] | 1 to 10 | 60 to 90 | < 25
N#CCOc1ccc2cc(O)c(N3CC(=O)NS3(=O)=O)c(F)c2c1 [Compound 203, {[8-fluoro-6-hydroxy-7-(1,1,4-trioxo-1λ^6,2,5-thiadiazolidin-2-yl)naphthalen-2-yl]oxy}acetonitrile] | 1 to 10 | 60 to 90 | < 25
CC(C)CCOc1ccc2cc(O)c(N3CC(=O)NS3(=O)=O)c(F)c2c1 [Compound 204, 5-[1-fluoro-3-hydroxy-7-(3-methylbutoxy)naphthalen-2-yl]-1λ^6,2,5-thiadiazolidine-1,1,3-trione] | < 1 | 60 to 90 | < 25
COc1ccc2cc(O)c(N3CC(=O)NS3(=O)=O)c(F)c2c1F [Compound 205, 5-(1,8-difluoro-3-hydroxy-7-methoxynaphthalen-2-yl)-1λ^6,2,5-thiadiazolidine-1,1,3-trione] | 10 to 100 | 25 to 59 | < 25
O=C1CN(c2c(O)cc3ccc(C4CN(S(=O)(=O)C5CC5)C4)cc3c2F)S(=O)(=O)N1 [Compound 206, 5-{7-[1-(cyclopropanesulfonyl)azetidin-3-yl]-1-fluoro-3-hydroxynaphthalen-2-yl}-1λ^6,2,5-thiadiazolidine-1,1,3-trione] | 1 to 10 | 60 to 90 | < 25
O=C1CN(c2c(O)cc3ccc(C4CN(C(=O)C5CC5)C4)cc3c2F)S(=O)(=O)N1 [Compound 207, 5-{7-[1-(cyclopropanecarbonyl)azetidin-3-yl]-1-fluoro-3-hydroxynaphthalen-2-yl}-1λ^6,2,5-thiadiazolidine-1,1,3-trione] | 1 to 10 | 25 to 59 | < 25
N#C/C=C/c1ccc2cc(O)c(N3CC(=O)NS3(=O)=O)c(F)c2c1 [Compound 208, (2E)-3-[8-fluoro-6-hydroxy-7-(1,1,4-trioxo-1λ^6,2,5-thiadiazolidin-2-yl)naphthalen-2-yl]prop-2-enenitrile] | 1 to 10 | < 25 | < 25
O=C1CN(c2c(O)cc3ccc(CCC4CC4)cc3c2F)S(=O)(=O)N1 [Compound 209, 5-[7-(2-cyclopropylethyl)-1-fluoro-3-hydroxynaphthalen-2-yl]-1λ^6,2,5-thiadiazolidine-1,1,3-trione] | 1 to 10 | 60 to 90 | < 25
O=C1CN(c2c(O)cc3ccc(OCCC4CC4)cc3c2F)S(=O)(=O)N1 [Compound 211, 5-[7-(2-cyclopropylethoxy)-1-fluoro-3-hydroxynaphthalen-2-yl]-1λ^6,2,5-thiadiazolidine-1,1,3-trione] | < 1 | 60 to 90 | < 25
O=C1CN(c2c(O)cc3ccc(OCCOCC4CC4)cc3c2F)S(=O)(=O)N1 [Compound 212, 5-{7-[2-(cyclopropylmethoxy)ethoxy]-1-fluoro-3-hydroxynaphthalen-2-yl}-1λ^6,2,5-thiadiazolidine-1,1,3-trione] | 1 to 10 | 60 to 90 | < 25
